This passage reports T/C results from PubChem BioAssay AID190 (DTP/NCI, 2004).

SMILES strings stand for the structures. Several values for one entry are separate records, joined by “and”; a condition that tells them apart may be missing. Equal entries are not always repeated. Inconclusive results and toxic doses are left out.

This assay deals with AKR/Lw mice, AKR lymphoma ip, median survival T/C. Put plainly: NCI In Vivo Anticancer Drug Screen. Data for tumor model Lymphoma AKR (Transplanted) (intraperitoneal) in AKR/Lw mice. To be noted: endpoint: median survival time, higher = longer survival. How it is done:
The antitumor activity of compounds was measured in mice bearing transplantable tumors. Survival or tumor size were measured and the results are expressed as the measurement made in the treated group (T) divided by the measurement made in the vehicle treated control group (C). The tumor model used in this assay is Lymphoma AKR (Transplanted) (intraperitoneal) in AKR/Lw mice

[1] abbreviates: dose: 100.0 mg/kg/injection, schedule: Q01DX001 (ip), vehicle: Klucel (hydroxypropylcellulose) (HPC).
The mark [2] stands for this setting: dose: 200.0 mg/kg/injection, schedule: Q01DX001 (ip), vehicle: Klucel (hydroxypropylcellulose) (HPC).
Setting [3] is: dose: 400.0 mg/kg/injection, schedule: Q01DX001 (ip), vehicle: Klucel (hydroxypropylcellulose) (HPC).
The mark [4] stands for this setting: dose: 100.0 mg/kg/injection, schedule: Q01DX001 (ip), vehicle: saline.
[5] abbreviates: dose: 200.0 mg/kg/injection, schedule: Q01DX001 (ip), vehicle: saline.
Setting [6] is: dose: 100.0 mg/kg/injection, schedule: Q04DX003 (ip), vehicle: saline.

Take `N[C@@H](Cc1ccc(N(CCCl)CCCl)cc1)C(=O)O`: the T/C is 102 % of control (dose: 0.25 mg/kg/injection, schedule: Q04DX008 (ip), vehicle: Klucel (hydroxypropylcellulose) (HPC)); 94 % of control (dose: 0.5 mg/kg/injection, schedule: Q04DX008 (ip), vehicle: Klucel (hydroxypropylcellulose) (HPC)); 119 % of control (dose: 0.75 mg/kg/injection, schedule: Q04DX008 (ip), vehicle: Klucel (hydroxypropylcellulose) (HPC)); 123 % of control (dose: 1.0 mg/kg/injection, schedule: Q04DX004 (ip), vehicle: Klucel (hydroxypropylcellulose) (HPC)); 115 % of control (dose: 1.0 mg/kg/injection, schedule: Q04DX004 (ip), vehicle: saline); 100 % of control (dose: 1.0 mg/kg/injection, schedule: Q04DX008 (ip), vehicle: Klucel (hydroxypropylcellulose) (HPC)). Moreover, the T/C is 158 % of control (dose: 2.0 mg/kg/injection, schedule: Q04DX004 (ip), vehicle: Klucel (hydroxypropylcellulose) (HPC)); 107 % of control (dose: 2.0 mg/kg/injection, schedule: Q04DX004 (ip), vehicle: saline); 116 % of control (dose: 2.0 mg/kg/injection, schedule: Q04DX008 (ip), vehicle: Klucel (hydroxypropylcellulose) (HPC)); 107 % of control (dose: 2.5 mg/kg/injection, schedule: Q01DX001 (ip), vehicle: Klucel (hydroxypropylcellulose) (HPC)); 179 % of control (dose: 3.9 mg/kg/injection, schedule: Q04DX004 (ip), vehicle: Klucel (hydroxypropylcellulose) (HPC)); 307 % of control (dose: 3.9 mg/kg/injection, schedule: Q04DX004 (ip), vehicle: saline). Also, the T/C by setting is: (dose: 6.0 mg/kg/injection, schedule: Q04DX004 (ip), vehicle: Klucel (hydroxypropylcellulose) (HPC)) 200 % of control; (dose: 6.0 mg/kg/injection, schedule: Q04DX004 (ip), vehicle: saline) 164 % of control; (dose: 7.7 mg/kg/injection, schedule: Q04DX008 (ip), vehicle: Klucel (hydroxypropylcellulose) (HPC)) 100 % of control; (dose: 9.0 mg/kg/injection, schedule: Q01DX001 (ip), vehicle: Klucel (hydroxypropylcellulose) (HPC)) 150 % of control; (dose: 12.0 mg/kg/injection, schedule: Q01DX001 (ip), vehicle: Klucel (hydroxypropylcellulose) (HPC)) 102 % of control; (dose: 16.0 mg/kg/injection, schedule: Q01DX001 (ip), vehicle: Klucel (hydroxypropylcellulose) (HPC)) 92 % of control.
In the case of `O=C(Nc1ccccc1)Oc1ccc(Cl)cc1`, the T/C reads like this: under setting [1], 100 % of control; under setting [2], 100 % of control; under setting [3], 106 % of control.
Turning to `Cc1ccc(N=C(c2ccc([N+](=O)[O-])cc2)c2ccc([N+](=O)[O-])cc2)cc1`, the T/C was 105 % of control (dose: 50.0 mg/kg/injection, schedule: Q01DX001 (ip), vehicle: Klucel (hydroxypropylcellulose) (HPC)); 96 % of control under setting [1]; 93 % of control and 100 % of control under setting [2]; 100 % of control under setting [3].
With `O=C(O)CCC(=O)Nc1cccc(Oc2ccc([N+](=O)[O-])cc2[N+](=O)[O-])c1`, the T/C runs as follows: under setting [1], 100 % of control; under setting [2], 87 % of control; under setting [3], 90 % of control.
Turning to `O=C1CCSCCN1`, the T/C is, setting by setting: under setting [4], 95 % of control; under setting [5], 86 % of control.
Consider `CC12CC3CC(C1)CC(C(=O)O)(C3)C2`, for which the T/C (dose: 25.0 mg/kg/injection, schedule: Q04DX003 (ip), vehicle: saline) is 97 % of control; the T/C (dose: 50.0 mg/kg/injection, schedule: Q04DX003 (ip), vehicle: saline) was 102 % of control; the T/C under setting [4] is 100 % of control; the T/C under setting [6] is 100 % of control; the T/C under setting [5] is 101 % of control; the T/C (dose: 400.0 mg/kg/injection, schedule: Q01DX001 (ip), vehicle: saline) was 108 % of control.
Turning to `Clc1nnc(Nc2ccccc2)c2ccccc12`, the T/C is 86 % of control (dose: 25.0 mg/kg/injection, schedule: Q04DX003 (ip), vehicle: Klucel (hydroxypropylcellulose) (HPC)); 98 % of control (dose: 50.0 mg/kg/injection, schedule: Q04DX003 (ip), vehicle: Klucel (hydroxypropylcellulose) (HPC)); 92 % of control under setting [1]; 92 % of control (dose: 100.0 mg/kg/injection, schedule: Q04DX003 (ip), vehicle: Klucel (hydroxypropylcellulose) (HPC)); 100 % of control under setting [6]; 96 % of control under setting [2]. In addition, the T/C under setting [3] was 96 % of control.
In the case of `O=C1c2ccccc2-c2ncccc21`, the T/C is 100 % of control under setting [1], 120 % of control under setting [2] and 93 % of control under setting [3].
As to `COC(=O)C1CC(=O)C2(C)CCc3c(ccc4cc(OC)ccc34)C12` (stereo not drawn), the T/C by setting is: (dose: 100.0 mg/kg/injection, schedule: Q01DX001 (sc), vehicle: steriod suspending solution) 109 % of control; (dose: 200.0 mg/kg/injection, schedule: Q01DX001 (sc), vehicle: steriod suspending solution) 104 % of control.
